These results are taken from ChEMBL document CHEMBL5131516, “The Ascension of Targeted Covalent Inhibitors” (J Med Chem, 2022).

Assay [1] can be described thus: Inhibition of wild-type EGFR phosphorylation in human NCI-H1819 cells. It counts as cell-based.
Assay [2] has as its target T1, Tyrosine-protein kinase Tec (Homo sapiens, UniProt P42680).
T1 sequence (P42680 whole entry): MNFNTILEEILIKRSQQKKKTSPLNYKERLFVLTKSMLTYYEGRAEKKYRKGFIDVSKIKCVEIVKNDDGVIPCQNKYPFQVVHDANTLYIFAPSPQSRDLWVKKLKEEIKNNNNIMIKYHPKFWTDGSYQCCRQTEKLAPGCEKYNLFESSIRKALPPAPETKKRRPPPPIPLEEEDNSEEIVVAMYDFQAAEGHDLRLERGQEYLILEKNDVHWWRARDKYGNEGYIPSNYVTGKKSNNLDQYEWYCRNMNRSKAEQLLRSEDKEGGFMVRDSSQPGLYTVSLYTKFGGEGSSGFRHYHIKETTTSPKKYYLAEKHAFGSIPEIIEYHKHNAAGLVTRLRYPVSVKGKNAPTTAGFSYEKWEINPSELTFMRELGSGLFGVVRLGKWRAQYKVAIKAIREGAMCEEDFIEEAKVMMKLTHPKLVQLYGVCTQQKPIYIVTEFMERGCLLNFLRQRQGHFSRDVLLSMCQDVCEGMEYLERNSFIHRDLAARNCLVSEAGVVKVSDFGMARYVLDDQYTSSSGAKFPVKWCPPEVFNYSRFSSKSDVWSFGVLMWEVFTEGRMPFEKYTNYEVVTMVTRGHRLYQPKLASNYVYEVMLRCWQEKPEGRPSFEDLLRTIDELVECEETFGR
Description: Inhibition of TEC (unknown origin)

What is called EC50 is the concentration needed to bring the measured effect to its halfway point. In assay [1], `COc1cc2ncnc(Nc3ccc(F)c(Cl)c3)c2cc1NC(=O)/C=C/CN1CCCCC1` [DACOMITINIB ANHYDROUS] displayed a 50% effective concentration (EC50) of 0.029 µM.

Broadly, the IC50 is the concentration that gives 50% inhibition. Turning to `C=CC(=O)N1CCC([C@@H]2CCNc3c(C(N)=O)c(-c4ccc(Oc5ccccc5)cc4)nn32)CC1` [ZANUBRUTINIB], the IC50 in assay [2] worked out at 0.044 µM.
